Here are results for three substances from US9029337B2, “Modulation of factor 7 expression” (Isis Pharmaceuticals, Inc., priority 2007, dated 2015).

Strand notation (5' to 3'): a small letter for the sugar, then the base; units joined by * are phosphorothioate-linked, units joined directly phosphodiester-linked; [ ] holds rarer units or linkages, { } end groups; capitals alone tell only the bases. e = 2'-O-(2-methoxyethyl) (MOE); [5mC] = 5-methylcytosine; d = 2'-deoxy (DNA)

One data set deals with human Factor 7 mRNA. The experiment in a line: Antisense inhibition of human Factor 7 mRNA in HepB3 cells, 50 nM antisense oligonucleotide, lipofectin. The following applies: lipofectin, approximately 24 hours. The data set is classed as cell-based. In a few lines:
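Seeding density was 4,000 cells per well. Following roughly 24 hours of oligonucleotide treatment, RNA was extracted and Factor 7 message quantified using the RTS 2927 primer probe set. Levels were corrected for RIBOGREEN® total RNA and expressed against untreated controls.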

In data set [1] the test system is intrinsic pathway of blood coagulation. The data set can be described thus: Activated Partial Thromboplastin Time (aPTT) in platelet poor plasma of treated BALB/c mice. The format is in vivo, mouse. On the procedure: Prothrombin Time (PT) and Activated Partial Thromboplastin Time (aPTT) were measured using platelet poor plasma (PPP) from mice treated with ISIS 403102. PT and aPTT values provided in Table 20 are reported as International Normalized Ratio (INR) values. INR values for PT and aPTT were determined by dividing the PT or aPTT value for the experimental group by the PT or aPTT for the PBS treated group. This ratio was then raised to the power of the International Sensitivity Index (ISI) of the tissue factor used.
Prothrombin Time (PT) and Activated Partial Thromboplastin Time (aPTT) were measured using platelet poor plasma (PPP) from mice treated with ISIS 403102. PT and aPTT values provided in Table 22 are reported as International Normalized Ratio (INR) values. INR values for PT and aPTT were determined by dividing the PT or aPTT value for the experimental group (i.e. 50 mg/kg treatment with ISIS 403102) by the PT or aPTT for the PBS treated group. This ratio was then raised to the power of the International Sensitivity Index (ISI) of the tissue factor used.
Prothrombin Time (PT) and Activated Partial Thromboplastin Time (aPTT) were measured using platelet poor plasma (PPP) from mice treated with ISIS 403102. PT and aPTT values provided in Table 24 are reported as International Normalized Ratio (INR) values. INR values for PT and aPTT were determined by dividing the PT or aPTT value for the experimental group (i.e. 50 mg/kg treatment with ISIS 403102) by the PT or aPTT for the PBS treated group. This ratio was then raised to the power of the International Sensitivity Index (ISI) of the tissue factor used.

A further data set deals with murine Factor 7 mRNA. The data set can be described thus: Antisense inhibition of murine Factor 7 mRNA in liver of BALB/c mice, dose response. The data set is classed as in vivo, mouse. On the procedure: BALB/c mice were treated with ISIS 403102 ([…], target site 11336, incorporated herein as SEQ ID NO: 161). BALB/c mice were injected subcutaneously with 5 mg/kg, 10 mg/kg, 25 mg/kg, or 50 mg/kg of ISIS 403102 twice a week for 3 weeks. A control group of mice was injected subcutaneously with PBS twice a week for 3 weeks. After the treatment period, whole liver was collected for RNA and protein analysis, and plasma was collected for clotting analysis (PT/aPTT).
RNA was extracted from liver tissue for real-time RT-PCR analysis of Factor 7. […] Results are presented as percent inhibition of Factor 7, relative to the control.

Setting [2] is: Table 1, 50 nM, relative to untreated control cells.
The mark [3] stands for this setting: 50 nM antisense oligonucleotide, Factor 7 mRNA by real-time RT-PCR (RTS 2927), relative to untreated control.

In the case of “407935 (antisense eA*eT*eG*e[5mC]*eA*dT*dG*dG*dT*dG*dA*dT*dG*d[5mC]*dT*eT*e[5mC]*eT*eG*eA) [compound 407935]”, the “% Inhibition” value with human Factor 7 mRNA (setting [2]) turned out to be 94%; in the data set on human Factor 7 mRNA (Table 13 (microwalk), 50 nM), 79%; in the data set with human Factor 7 mRNA (setting [3]) it was 72%.
Consider “407939 (antisense eT*eG*e[5mC]*eA*eG*d[5mC]*d[5mC]*d[5mC]*dG*dG*d[5mC]*dA*d[5mC]*d[5mC]*d[5mC]*eA*eG*e[5mC]*eG*eA) [compound 407939]”, for which the “% Inhibition” value is recorded as 93% in the data set on human Factor 7 mRNA (setting [2]) and 76% in the data set on human Factor 7 mRNA (setting [3]).
For “CCATAGAACAGCTTCACAGG (sugars from the 5' end e5 d10 e5, backbone and methylation of C not given here) [ISIS 403102]”, the “aPTT INR” value in data set [1] (BALB/c mice, 5 mg/kg, relative to PBS treated group) is given as 1.05; in data set [1] (BALB/c mice, 10 mg/kg, relative to PBS treated group), 1.04; in data set [1] (BALB/c mice, 25 mg/kg, relative to PBS treated group) it was 1.09; in data set [1] (BALB/c mice, 50 mg/kg, 1 dose, 1 day after last dose, relative to PBS group), 1.08 INR; in data set [1] (BALB/c mice, 50 mg/kg, 1 dose, 3 days after last dose, relative to PBS group), 1.10 INR; in data set [1] (BALB/c mice, 50 mg/kg, 2 doses, 3 days after last dose, relative to PBS group), 1.29 INR. Moreover, the “aPTT INR” value in data set [1] (BALB/c mice, 50 mg/kg, 4 doses, 3 days after last dose, relative to PBS group) is on record as 1.53 INR; in data set [1] (BALB/c mice, 50 mg/kg, 6 doses, 2 days after last dose, relative to PBS group) it was 1.62 INR; in data set [1] (BALB/c mice, 50 mg/kg, 6 doses, 7 days after last dose, relative to PBS group), 1.67 INR; in data set [1] (BALB/c mice, 50 mg/kg, 6 doses, 14 days after last dose, relative to PBS group) it was 1.25 INR; in data set [1] (BALB/c mice, 50 mg/kg, 6 doses, 28 days after last dose, relative to PBS group), 0.90 INR; in data set [1] (BALB/c mice, 50 mg/kg, 6 doses, 42 days after last dose, relative to PBS group), 1.00 INR. In addition, the “aPTT INR” value in data set [1] (BALB/c mice, 50 mg/kg, 6 doses, 56 days after last dose, relative to PBS group) is reported as 0.98 INR; in data set [1] (BALB/c mice, 50 mg/kg, relative to PBS treated group), 1.16; in data set [1] (BALB/c mice, single dose 50 mg/kg, day 1) it was 1.00; in data set [1] (BALB/c mice, single dose 50 mg/kg, day 2), 1.05; in data set [1] (BALB/c mice, single dose 50 mg/kg, day 3), 1.24; in data set [1] (BALB/c mice, single dose 50 mg/kg, day 4), 1.15. The “aPTT INR” value in data set [1] (BALB/c mice, single dose 50 mg/kg, day 6) is 1.23; in data set [1] (BALB/c mice, single dose 50 mg/kg, day 8) it was 1.18; in data set [1] (BALB/c mice, single dose 50 mg/kg, day 12), 1.18; in data set [1] (BALB/c mice, single dose 50 mg/kg, day 24), 1.02; in data set [1] (BALB/c mice, single dose 50 mg/kg, day 56), 0.97; in data set [1] (single dose 50 mg/kg, day 4), 1.24. Moreover, the “aPTT INR” value in data set [1] (single dose 50 mg/kg, day 56) is reported as 0.97; in data set [1] (single dose 50 mg/kg, starting value before the rise to day 4), 1.00. The “aPTT compared to the control” value in data set [1] (Example 11, 5-50 mg/kg twice a week for 3 weeks) is “slightly prolonged”. Further, in data set [1] (Example 13, 6 doses, from day 7 to day 56), the aPTT entry was “decreased”. Moreover, the “% inhibition of murine Factor 7 mRNA” value stood at 64% with murine Factor 7 mRNA (5 mg/kg subcutaneously twice a week for 3 weeks, relative to PBS control); 84% in the data set on murine Factor 7 mRNA (10 mg/kg subcutaneously twice a week for 3 weeks); 96% with murine Factor 7 mRNA (25 mg/kg subcutaneously twice a week for 3 weeks); 99% with murine Factor 7 mRNA (50 mg/kg subcutaneously twice a week for 3 weeks). In the data set with murine Factor 7 mRNA (5-50 mg/kg twice a week for 3 weeks), the “reduction of murine Factor 7 mRNA over the PBS control” value is listed as “dose-dependent reduction of murine Factor 7”.
